Experimental data from PMC5369982, “Near infrared fluorescent imaging of choline kinase alpha expression and inhibition in breast tumors” (Oncotarget, 2017).
Read-outs that look alike come from different tables or passages of the source.

How the values were obtained:
MDA-MB-231 cells = assay: Cell viability, MTT assay; assay type: cell-based, human; settings: 17 h, ± SEM, 3 experiments
Protocol: (§1) MCF7 cells were plated for Trypan exclusion assays at 1.0 × 10^6 cells/well in 6-well plates and treated with MN58b or JAS239, synthesized in house. At 17 h, cells were collected by trypsinization, stained with Trypan Blue, and counted using a Neubauer hemocytometer. For 3-(4,5-Dimethylthiazol-2-yl)-2,5-diphenyltetrazolium bromide (MTT) assays, cells in 96-well plates (7.5 × 10^4 cells/well) were treated with JAS239 or MN58b overnight, and stained with 20 μL of 5 mg/mL MTT (Sigma-Aldrich) for 2 h, lysed with DMSO and scanned for absorbance using a SpectraMax M5 plate reader (Molecular Devices) at 550 nm, subtracting background absorbance at 690 nm from each sample.
(§2) Supplementary Figure 2: Breast cancer cell viability in response to ChoK inhibitors. (A–D) Cell viability measurements via […]
(§3) (A) or JAS239 (B). MTT assays were performed on MDA-MB-231 and 4175-Luc+ (C, D) cells exposed to MN58b (C) or JAS239 (D).
(§4) Values are reported relative to untreated control groups and represent ± SEM for 3 separate experiments. At higher JAS239 concentrations, the MTT assay was used as JAS239 interfered with Trypan blue counting. There was no overlap in absorbance readings between the MTT formazan product and JAS239.
(§5) (1 picture or pasted object on this page, not shown here)

4175-Luc+ cells = assay: Cell viability, MTT assay; assay type: cell-based, human; settings: 17 h, ± SEM, 3 experiments
Protocol: as §1, §2, §3, §4, §5

MCF7-CK+ cells = assay: Cell viability, Trypan blue exclusion; assay type: cell-based, human; settings: 17 h, ± SEM, 3 experiments
Protocol: as §1, §2, §3, §4, §5

MCF7-EV cells = assay: Cell viability, Trypan blue exclusion; assay type: cell-based, human; settings: 17 h, ± SEM, 3 experiments
Protocol: as §1, §2, §3, §4, §5

ChoKα [1] = molecular target: T1, ChoKα (Homo sapiens, UniProt P35790); assay: ChoKα activity assay (14C-choline phosphorylation to 14C-PC in cells); assay type: cell-based; design: endogenous in cells; host or cells: MCF7-EV, MCF7-CK+ (stably overexpressing ChoK), MDA-MB-231, 4175-Luc+; settings: analyzed after 2 h, ± SEM, 3 experiments, read-out: IC50 (14C-PC production)
T1 sequence (P35790 whole entry): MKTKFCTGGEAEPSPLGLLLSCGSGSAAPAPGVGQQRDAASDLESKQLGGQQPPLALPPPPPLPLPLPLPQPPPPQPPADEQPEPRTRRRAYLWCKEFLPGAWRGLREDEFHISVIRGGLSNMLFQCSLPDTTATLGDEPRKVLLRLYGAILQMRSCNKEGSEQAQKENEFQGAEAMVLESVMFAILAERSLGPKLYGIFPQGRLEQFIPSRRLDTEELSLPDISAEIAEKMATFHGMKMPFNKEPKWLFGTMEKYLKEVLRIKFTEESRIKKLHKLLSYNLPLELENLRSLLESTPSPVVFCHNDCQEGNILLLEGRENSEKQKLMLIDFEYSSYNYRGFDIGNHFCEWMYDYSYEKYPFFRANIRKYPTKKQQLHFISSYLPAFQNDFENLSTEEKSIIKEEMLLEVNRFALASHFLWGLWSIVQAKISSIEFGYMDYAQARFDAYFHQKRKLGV
Protocol: Cells in 6-well plates (1.0 × 10^6 cells/well) were incubated for 24 h then treated with JAS239 or MN58b. After 1 h, cells were spiked for 1 h with 0.5 μCi/mL [methyl-^14C]-choline (PerkinElmer) and fixed with trichloroacetic acid. Aqueous cellular extracts were separated by thin layer chromatography (TLC) and the ^14C-PC production measured by autoradiography on a Fujifilm FLA-7000 using previously described methods. […]
Supplementary Figure 1: Characterization of ChoKα in a panel of human breast cancer cell lines. (A) Determination of
ChoKα expression by Western blot confirms elevated ChoKα protein found in MCF7-CK+ cells. (B) Conversion of 14C-choline to 14C-PC
follows the pattern expected from ChoKα expression levels in (A). (C–F) Dose-response curves comparing the effect of MN58b ( C, D) or
JAS239 (E, F) on 14C-choline phosphorylation in MCF7-EV and MCF7-CK+ cells (C, E) or MDA-MB-231 and 4175-Luc+ cells (D, F).
Values are reported as a percentage of the untreated EV group (for MCF7 cells) or untreated MDA-MB-231 group (for MDA-MB-231 and
4175-Luc+), and represent ± SEM for 3 separate experiments.

ChoKα [2] = molecular target: T1, ChoKα; assay: Confocal microscopy colocalization of JAS239 with anti-ChoKα antibody in fixed MDA-MB-231 cells; assay type: cell-based; design: endogenous in cells; host or cells: MDA-MB-231; settings: cells pre-treated with ChoKα antibody
Protocol: MDA-MB-231 cells plated on sterile glass coverslips were fixed in 4% paraformaldehyde, permeabilized in 0.2% Triton X-100, and blocked in 1% BSA. Staining with 0 or 200 μM JAS239 was performed 30 min prior or 1 h after application of rabbit anti-human ChoKα antibody (ab38290; Abcam, 1:1000 dilution). Coverslips were then stained with goat anti-rabbit antibody conjugated to Texas Red (Vector Laboratories; TI-1000, 1:500), dehydrated, and mounted with VectaShield (Vector Laboratories). Confocal micrographs were acquired on a Zeiss LSM 510META NLC using excitation (Ex.) 543 nm and emission (Em.) 565–615 nm for Texas Red and Ex. 633 nm and Em. > 650 nm for JAS239. The Coloc 2 FIJI software plug-in was used to assess colocalization of the anti-ChoKα antibody with JAS239 by calculating Pearson's Correlation Coefficients and Manders’ Colocalization Coefficients for at least 3 separate ROIs. […]
strongly correlated with ChoKα, unless fixed cells are pre-incubated with ChoKα antibody (Ab). (B) Manders’ Colocalization Coefficients calculated for the Texas-Red channel confirm that the majority of ChoKα is bound by JAS239 when JAS239 is present. (C) Manders’ Colocalization Coefficients calculated for the JAS239 channel indicate that the majority of JAS239 that is present intracellularly is co-distributed with ChoKα. Values represent ± SEM for 3 separate fields of view. […]

[3] = test system: MDA-MB-231 tumor xenografts; design: method as in PMID 16397258; settings: 4 mg/kg; cited from earlier work

| Compound | EC50 (MDA-MB-231 cells) [µM] | EC50 (4175-Luc+ cells) [µM] | EC50 (MCF7-CK+ cells) [µM] | EC50 (MCF7-EV cells) [µM] | IC50 (ChoKα [1]; 4175-Luc+ cells) [µM] | IC50 (ChoKα [1]; MCF7-CK+ cells) [µM] | IC50 (ChoKα [1]; MCF7-EV cells) [µM] | IC50 (ChoKα [1]; MDA-MB-231 cells) [µM] | JAS239 retention after ChoKα antibody pre-treatment (ChoKα [2]) | PC levels in tumor xenografts [3] |
| --- | --- | --- | --- | --- | --- | --- | --- | --- | --- | --- |
| CC1(C)C(=C/C=C/C=C/C=C/C2=[N+](CCO)c3ccccc3C2(C)C)N(CCO)c2ccccc21 [JAS239] | 27.2 ± 7.9 | 35 ± 21.6 | 5.33 ± 0.84 | 4.04 ± 0.55 | 9.89 ± 0.24 | 10.3 ± 2.48 | 11.1 ± 5.64 | 9.92 ± 0.22 | marked reduction in JAS239 retention | – |
| MN58b [reference compound] | 14.3 ± 4.6 | 20.7 ± 6.4 | 6.86 ± 0.43 | 3.29 ± 0.48 | 4.59 ± 0.55 | 2.36 ± 0.28 | 3.85 ± 0.42 | 4.36 ± 1.37 | – | lower PC levels |
